The structures appear in SMILES notation. Structures can show the parent of a compound that is named as a salt.

Holding throughout (format): physicochemical
The nature of data set [1]: Dynamic vapor sorption / hygroscopicity studies (automated water sorption analyzer). The note with it: 25° C.; for relative humidity up to which the form is stable: sorption cycle. As to the method:
The transformation of the monohydrate to the dihydrate form and vice versa occurs quickly and is well defined at 25° C. and at 40° C. This was shown by dynamic vapor sorption investigations. For example, during pre-drying of the monohydrate at 25° C. and 0% relative humidity, 4.0% water is released from the monohydrate. […] Between 20% and 40% relative humidity, one mole of water is absorbed, resulting in the formation of the monohydrate. The monohydrate is stable up to approximately 50% relative humidity and then is transformed into the dihydrate by absorption of a second mole of water between 50% and 60% relative humidity. The dihydrate is the stable form up to 98% relative humidity at 25° C. During the desorption cycle between 40% and 50% relative humidity, the transformation into the monohydrate takes place. The formed monohydrate is existent up to 10% relative humidity. Between 0% and 10% relative humidity the dehydration of the monohydrate to the dehydrated form II occurs. No significant differences between the two cycles were observed.
The hygroscopicity with respect to the transformation of the monohydrate and dihydrate was re-investigated between 45% and 55% relative humidity using smaller steps for the relative humidity. […] At 40° C. the reversible transformation between the monohydrate and the dihydrate is between 57% and 59% relative humidity, approximately 10% higher than at 25° C.
Also, the transformation of the anhydrate form of the potassium salt (Ia) to the hydrate form was shown by dynamic vapor sorption investigations at 25° C. Up to 40% relative humidity the anhydrate was stable. Between 40% and 60% relative humidity approximately two moles of water are absorbed, resulting in the formation of the dihydrate.
Data collection for the hygroscopicity studies was carried out in an automated water sorption analyzer. Approximately 20 mg of the investigated solid state form of the crystalline potassium salt (Ia) was exposed to a continuous flow of nitrogen with predetermined and constant relative humidity. The rate of sweep gas was set at 200 cm^3/min. For a basic assay, two full cycles (sorption/desorption) were measured at 25° C. The measurement was started at 0% relative humidity in order to remove surface water. Once the constant mass was achieved, the next humidity was automatically set. The water sorption/desorption was investigated in steps of 10% between 0% and 90% relative humidity under the criteria for initiation of the first step as set forth herein. Additionally, the sorption at about 98% relative humidity was investigated. Data was acquired using the DVSWin software. […]

Data set [2] can be described thus: Chemical stability of solid state forms under stress at 40° C./75% rH over 4 weeks (HPLC purity). The note with it: for HPLC-purity: 40° C./75% RH; for chemical stability under stress (in words): 40° C./75% rH. As to the method:
The chemical stability of the anhydrate and the monohydrate of the potassium salt of Formula (Ia) of the invention as well as the dehydrated form I of the potassium salt (Ia) of the invention were assessed by comparing the stability under stress at 40° C./75% rH over a period of 4 weeks.

Data set [3] in a line: Salt screening assays of the acid (IIa): stability of the salts. An excerpt:
The following describes the salt screening assays in more detail:
Many inorganic cations were investigated to determine their ability to form a stable crystalline salt of the acid (IIa), including potassium, sodium, calcium, aluminium, magnesium, lithium, and zinc.
Several organic amines were investigated, including N-methylglucamine, diethanolamine, ethylenediamine, choline, lysine, and arginine.
In addition to the foregoing, it was investigated to form a mixed salt of the acid of Formula (IIa) with polyvalent inorganic cations and organic acids.
In general, the salt screening assay included the variability of the following different test parameters:
i) Type of cation-compound utilized (e.g., as carbonates, hydroxides, methylates, ethylates).
ii) Type of solvent utilized.
iii) Specific addition or exclusion of water (to assist the formation of hydrates or anhydrates).
iv) Type of crystallization utilized (cooling crystallization, antisolvent crystallization, or evaporation crystallization, and combinations thereof).
v) Type of screening (manual screening as well as high throughput screening).

Take `O=C(O)COC[C@H](O)[C@H](O)/C=C/C=C/C#C/C=C/[C@H](O)COc1ccc(F)cc1` [K-salt, Anhydrate, potassium 2-((2S,3R,4E,6E,10E,12S)-13-(4-fluorophenoxy)-2,3,12-trihydroxytrideca-4,6,10-trien-6-ynyloxy)acetate]: the “relative humidity up to which the form is stable” value (“relative humidity up” for short) in data set [1] is on record as “Up to 40 % relative humidity”. The results for the HPLC-purity in data set [2] (0 weeks (start)), in data set [2] (2 weeks) and in data set [2] (4 weeks) were 99.6%, 99.7% and 99.7%, respectively. Also, the “chemical stability under stress (in words)” value in data set [2] (4 weeks) was “no sign of degradation”.
As to `O=C(O)COC[C@H](O)[C@H](O)/C=C/C=C/C#C/C=C/[C@H](O)COc1ccc(F)cc1` [K-salt, Monohydrate, potassium 2-((2S,3R,4E,6E,10E,12S)-13-(4-fluorophenoxy)-2,3,12-trihydroxytrideca-4,6,10-trien-6-ynyloxy)acetate], in data set [1] (0% relative humidity, gives dehydrated form II), the “water released during pre-drying” value turned out to be 4.0%. For the same molecule, in data set [1], the “relative humidity up” value is “approximately 50 % relative humidity”. Further, the HPLC-purity in data set [2] (0 weeks (start)) turned out to be 99.7%; in data set [2] (2 weeks), 99.6%; in data set [2] (4 weeks), 99.7%. For the same molecule, in data set [2] (4 weeks), the “chemical stability under stress (in words)” value was “no sign of degradation”.
Turning to `O=C(O)COC[C@H](O)[C@H](O)/C=C/C=C/C#C/C=C/[C@H](O)COc1ccc(F)cc1` [dihydrate, potassium 2-((2S,3R,4E,6E,10E,12S)-13-(4-fluorophenoxy)-2,3,12-trihydroxytrideca-4,6,10-trien-6-ynyloxy)acetate], the “relative humidity up” value in data set [1] was “up to 98 % relative humidity”.
Consider `O=C(O)COC[C@H](O)[C@H](O)/C=C/C=C/C#C/C=C/[C@H](O)COc1ccc(F)cc1` [(Ia), potassium 2-((2S,3R,4E,6E,10E,12S)-13-(4-fluorophenoxy)-2,3,12-trihydroxytrideca-4,6,10-trien-6-ynyloxy)acetate], for which, in data set [3], the “stability compared with other salts and the free acid (in words)” value is “substantially more stable than every other salt prepared”.
Turning to `O=C(O)COC[C@H](O)[C@H](O)/C=C/C=C/C#C/C=C/[C@H](O)COc1ccc(F)cc1` [K-salt, dehydrated form I, potassium 2-((2S,3R,4E,6E,10E,12S)-13-(4-fluorophenoxy)-2,3,12-trihydroxytrideca-4,6,10-trien-6-ynyloxy)acetate], the HPLC-purity in data set [2] (0 weeks (start)) amounted to 97.8%; in data set [2] (2 weeks), 97.1%; in data set [2] (4 weeks), 95.3%.
